# Laboratory results: patent US9156811B2 (priority 2008, dated 2015)
# Read-outs that look alike come from different tables or passages of the source.
# How the values were obtained:
# [1] = system: Trypanosome (T. brucei brucei); experiment: In-vitro antitrypanosomal efficacy assay (cell growth, resazurin); format: cell-based
# Description: To column 12, 200 μl media was added to provide a no cells control. Plates were then incubated at 37° C. in an atmosphere of 5% CO2 for 69 hours, before the addition of 20 μl of 500 μM rezasurin solution, and a further incubation period of 4 hours. […] Concentration effect curves were fitted using non-linear regression using XLFit 4.2 and EC50 values determined.
# [2] = target: T. brucei N-myristoyl transferase (Trypanosoma brucei brucei (strain 927/4 GUTat10.1), UniProt Q388H8); experiment: biochemical; format: biochemical
# [3] = value printed without enzyme tag in the NMT Enzyme column (taken as T. brucei NMT), read-out: IC50 (μM) NMT Enzyme
# [4] = value with no enzyme tag in the cell, taken as T. brucei NMT, read-out: IC50 (μM) NMT Enzyme
# [5] = T. brucei brucei, blood stream form, variant 221
# [6] = T. brucei NMT, value without parentheses, read-out: IC50 (μM) NMT Enzyme (T. brucei NMT)
# Sequence of T. brucei N-myristoyl transferase (Q388H8 1-446): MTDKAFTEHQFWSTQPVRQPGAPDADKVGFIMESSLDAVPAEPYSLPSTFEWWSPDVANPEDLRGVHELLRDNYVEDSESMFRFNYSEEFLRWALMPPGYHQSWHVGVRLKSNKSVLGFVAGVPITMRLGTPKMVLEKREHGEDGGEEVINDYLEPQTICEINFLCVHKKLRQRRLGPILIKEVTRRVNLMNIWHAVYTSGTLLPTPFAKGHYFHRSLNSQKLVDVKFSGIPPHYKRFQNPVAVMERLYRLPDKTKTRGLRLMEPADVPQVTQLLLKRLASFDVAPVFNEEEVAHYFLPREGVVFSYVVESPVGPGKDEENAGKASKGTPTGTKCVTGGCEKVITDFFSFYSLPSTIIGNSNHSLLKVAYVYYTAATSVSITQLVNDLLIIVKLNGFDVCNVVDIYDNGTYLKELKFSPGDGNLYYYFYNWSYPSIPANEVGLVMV
Compound,ED50 (μM) T. brucei ([1]; T. brucei cell growth),"IC50 [2, 3]","IC50 [2, 4]","ED50 (μM) T. brucei [1, 5]","IC50 [2, 6]"
Cc1nn(C)c(C)c1N[S+](=O)([O-])c1ccccc1F [DDD71245],>1 µM,5.6 µM,,,
Cc1nn(C)c(C)c1N[S+](=O)([O-])c1ccc(NCC(c2ccccc2)c2ccccc2)nc1 [DDD73492],>1 µM,13.6 µM,,,
COc1ccc(OC)c([S+](=O)([O-])Nc2c(C)nn(C)c2C)c1 [DDD64750],>1 µM,30 µM,,,
"Cc1nn(C)c(C)c1NS(=O)(=O)c1c(Cl)cc(-c2ccnc(N3CCC(N(C)C)C3)c2)cc1Cl (stereo not shown) [DDD86292, 2,6-Dichloro-4-[2-(3-dimethylamino-pyrrolidin-1-yl)-pyridin-4-yl]-N-(1,3,5-trimethyl-1 H-pyrazol-4-yl)-benzenesulfonamide]",>1 µM,,1 µM,,
Cc1nn(C)c(C)c1N[S+](=O)([O-])c1ccc(C(C)C)cc1 [DDD71241],>1 µM,1.5 µM,,,
CCCn1ncc(N[S+](=O)([O-])c2c(C)cc(OC)c(C)c2C)n1 [DDD73266],>1 µM,> 100 µM,,,
Cc1nn(C)c(C)c1N[S+](=O)([O-])c1c(F)cc(-c2ccnc(N3CCNCC3)c2)cc1F [DDD88323],0.005 µM,,0.004 µM,,
CCC(C)c1ccc([S+](=O)([O-])Nc2c(C)nn(C)c2C)cc1 (stereo not shown) [DDD71242],>1 µM,4.3 µM,,,
Cc1nn(C)c(C)c1N[S+](=O)([O-])c1cc(Cl)sc1Cl [DDD61495],>1 µM,6.4 µM,,,
Cc1nn(C)c(C)c1N[S+](=O)([O-])c1ccc(N2CCOCC2)nc1 [DDD71274],>1 µM,2 µM,,,
Cc1cc(CN(C)C)cc(-c2ccc([S+](=O)([O-])Nc3c(CC(C)C)nn(C)c3C)cc2)c1 [DDD99817],0.047 µM,,0.014 µM,,
CCc1ccc(-c2cc(Cl)c([S+](=O)([O-])Nc3c(C)nn(C)c3C)c(Cl)c2)cc1 [DDD73267],>1 µM,44.5 µM,,,
Cc1nn(C)c(C)c1N[S+](=O)([O-])c1ccc(CSCc2ccccc2)cc1 [DDD85599],>1 µM,2.4 µM,,,
Cc1nn(C)c(C)c1N[S+](=O)([O-])c1ccc(N[C@H](C)c2ccc3ccccc3c2)nc1 [DDD73486],>1 µM,2.8 µM,,,
CCCN(c1c(C)nn(C)c1C)[S+](=O)([O-])c1c(Cl)cc(Br)cc1Cl [DDD85594],21.0 µM,3.2 µM,,,
Cc1nn(C)c(C)c1N[S+](=O)([O-])c1c(Cl)cc(-c2ccco2)cc1Cl [DDD73268],>1 µM,3.6 µM,,,
Cc1noc(C)c1N[S+](=O)([O-])c1ccc(CCCN2CCN(C)CC2)cc1 [DDD88190],31.0 µM,,1.1 µM,,
CC(=O)c1ccc([S+](=O)([O-])Nc2c(C)nn(C)c2C)cc1 [DDD71232],>1 µM,42 µM,,,
Cc1nn(C)c(C)c1N[S+](=O)([O-])c1ccc(NCc2ccc(Cl)c(Cl)c2)nc1 [DDD73325],>1 µM,12.8 µM,,,
Cc1nn(C)c(C)c1N[S+](=O)([O-])c1ccc2c(c1)OCCO2 [DDD16771],>1 µM,4 µM,,,
Cc1nn(C)c(C)c1N[S+](=O)([O-])c1ccc(N2CCc3ccccc3C2)nc1 [DDD73227],8.1 µM,0.9 µM,,,

Compound,ED50 (μM) T. brucei ([1]; T. brucei cell growth),"IC50 [2, 3]","IC50 [2, 4]","ED50 (μM) T. brucei [1, 5]","IC50 [2, 6]"
Cc1nn(C)c(C)c1NS(=O)(=O)c1c(Cl)cc(-c2cccc3c2CCNC3)cc1Cl [DDD87762],>1 µM,,2.6 µM,,
Cc1nn(C)c(C)c1N[S+](=O)([O-])c1c(Cl)cc(-c2cccc(OCC(C)C)c2)cc1Cl [DDD73272],>1 µM,35 µM,,,
Cc1nn(C)c(C)c1N[S+](=O)([O-])c1ccc(N(C)CCCN(C)C)nc1 [DDD85626],1.9 µM,0.61 µM,,,
Cc1nn(C)c(C)c1N[S+](=O)([O-])c1ccc(NCc2nc3ccccc3s2)nc1 [DDD73477],6.0 µM,0.46 µM,,,
Cc1nn(C)c(C)c1N[S+](=O)([O-])c1ccc(COCCCN(C)C)cc1 [DDD85647],>1 µM,,66.1 µM,,
Cc1nn(C)c(C)c1N[S+](=O)([O-])c1ccc2c(c1)OCCN2C [DDD71281],>1 µM,16.1 µM,,,
Cc1cc(Br)ccc1[S+](=O)([O-])Nc1c(C)nn(C)c1C [DDD88316],>10 µM,,12.7 µM,,
Cc1nn(C)c(C)c1N[S+](=O)([O-])c1ccc(NCCc2ccc3ccccc3c2)nc1 [DDD73489],>1 µM,12.4 µM,,,
Cc1cc([S+](=O)([O-])Nc2c(CC(C)C)nn(C)c2C)ccc1-c1cccc(CN(C)C)c1 [DDD99819],0.043 µM,,0.008 µM,,
CC(=O)c1cccc(Nc2ccc([S+](=O)([O-])Nc3c(C)nn(C)c3C)cn2)c1 [DDD86311],>1 µM,,1 µM,,
Cc1nn(C)c(C)c1N[S+](=O)([O-])c1ccc(Cl)c(C(F)(F)F)c1 [DDD71252],>1 µM,17.4 µM,,,
Cc1nn(C)c(C)c1N[S+](=O)([O-])c1ccc(C2OCCO2)cc1 [DDD71276],>1 µM,9.5 µM,,,
Cc1nn(C)c(C)c1N[S+](=O)([O-])c1ccc(NC2Cc3ccccc3C2)nc1 [DDD73478],4.5 µM,0.36 µM,,,
Cc1nn(C)c(C)c1N[S+](=O)([O-])c1ccc(CNCc2ccccc2)cc1 [DDD73265],>1 µM,22.5 µM,,,
Cc1c(N[S+](=O)([O-])c2ccc(CCCCC3CCNCC3)cc2)c(CC(C)C)nn1C [DDD100158],,,,0.048 µM,0.006 µM
Cc1nn(C)c(C)c1N(CCc1ccccc1)[S+](=O)([O-])c1c(Cl)cc(Br)cc1Cl [DDD85606],3.6 µM,4.9 µM,,,
Cc1ccc(C(C)(C)C)cc1[S+](=O)([O-])Nc1c(C)nn(C)c1C [DDD71251],>1 µM,> 100 µM,,,
Cc1nn(C)c(C)c1N[S+](=O)([O-])c1c(Cl)cc(-c2ccnc(NCCN)c2)cc1Cl,>1 µM,,1 µM,,
COc1cc(C)c([S+](=O)([O-])Nc2cnc3ccccn23)c(C)c1C [DDD71277],>1 µM,95 µM,,,
Cc1nn(C)c(C)c1N[S+](=O)([O-])c1ccc2c(c1)OCCCO2 [DDD71230],>1 µM,3.5 µM,,,
Cc1nn(C)c(C)c1N[S+](=O)([O-])c1ccc(N(C)Cc2ccc(CN(C)C)cc2)nc1 [DDD85624],1.5 µM,0.36 µM,,,

Compound,ED50 (μM) T. brucei ([1]; T. brucei cell growth),"IC50 [2, 3]","IC50 [2, 4]","ED50 (μM) T. brucei [1, 5]","IC50 [2, 6]"
Cc1nn(C)c(C)c1N[S+](=O)([O-])c1ccc(N2CCC(c3ccccc3)CC2)nc1 [DDD73481],>1 µM,6.9 µM,,,
Cc1nn(C)c(C)c1N[S+](=O)([O-])c1ccccc1 [DDD48025],>1 µM,11.8 µM,,,
Cc1nn(C)c(C)c1N[S+](=O)([O-])c1ccc(NCCN2CCOCC2)nc1 [DDD73239],>50 µM,38.7 µM,,,
Cc1nn(C)c(C)c1N[S+](=O)([O-])c1c(Cl)cc(C#CCN2CCCCC2)cc1Cl [DDD86476],>1 µM,,5.9 µM,,
COc1ccc(OCCC[S+](=O)([O-])Nc2c(C)nn(C)c2C)cc1 [DDD71275],>1 µM,62 µM,,,
Cc1c(N[S+](=O)([O-])c2ccc(CCCN3CCN(C)CC3)cc2)c(CC(C)C)nn1C [DDD90147],0.20 µM,,0.034 µM,,
Cc1nn(C)c(C)c1N[S+](=O)([O-])c1ccc(COc2ccc3cc[nH]c3c2)cc1 [DDD73507],>1 µM,4.5 µM,,,
Cc1nn(C)c(C)c1N[S+](=O)([O-])c1c(Cl)cc(C#CC2CCCCC2)cc1Cl [DDD73479],>1 µM,> 100 µM,,,
Cc1nn(C)c(C)c1N[S+](=O)([O-])c1ccc(-c2cccc(CN)c2)cc1 [DDD88560],2.15 µM,,0.054 µM,,
Cc1nn(C)c(C)c1N[S+](=O)([O-])c1ccc(NCc2cccnc2)nc1 [DDD73233],>1 µM,2.7 µM,,,
Cc1nn(C)c(C)c1N[S+](=O)([O-])c1ccc(N2CCN(c3ccc(F)cc3)CC2)nc1 [DDD73230],>1 µM,10.7 µM,,,
Cc1nn(C)c(C)c1N[S+](=O)([O-])c1ccc(CNc2ccc(C(C)C)cc2)cc1 [DDD73505],>1 µM,9.7 µM,,,
Cc1nn(C)c(C)c1N[S+](=O)([O-])c1ccc(NCc2ccn(C)n2)nc1 [DDD73487],14.2 µM,1.2 µM,,,
COc1cc(C)c([S+](=O)([O-])n2ccc(N)n2)c(C)c1C [DDD71644],>1 µM,> 100 µM,,,
Cc1nn(C)c(C)c1N[S+](=O)([O-])c1ccc(CNc2ccc(-c3ccccn3)cc2)cc1 [DDD73508],>1 µM,5.2 µM,,,
Cc1nn(C)c(C)c1N[S+](=O)([O-])c1ccc(NCCCN2CCN(c3ccccc3)CC2)nc1 [DDD86291],>1 µM,,1 µM,,
Cc1nn(C)c(C)c1N[S+](=O)([O-])c1ccc(NCCN2CCN(C(C)C)CC2)nc1 [DDD86298],>1 µM,,1 µM,,
Cc1c(N[S+](=O)([O-])c2ccc(-c3cc(CN(C)C)ccc3F)cc2)c(CC(C)C)nn1C [DDD99827],,,,0.019 µM,0.007 µM
Cc1nn(C)c(C)c1N(C1CCCC1)[S+](=O)([O-])c1c(Cl)cc(Br)cc1Cl [DDD85600],5.9 µM,1.9 µM,,,
COc1cc(C)c([S+](=O)([O-])Nc2cccnc2)c(C)c1C [DDD71288],>1 µM,> 100 µM,,,
